This is an account of results in patent US4294845A, “1,3-Benzodioxin derivatives” (priority 1978, dated 1981).

The structures appear in SMILES notation.

Data set [1] is described as follows: Acute toxicity in mice (intraperitoneal, DL50). It counts as in vivo. The settings on record: mouse, in vivo, ip, observed for one week. The method, then: (§1) The acute toxicity was determined on groups of 5 mice weighing about 18 to 22 g and the test products were intraperitoneally administered in suspension in an aqueous carboxymethylcellulose.
For data set [2], the system named is levels of triglycerides, cholesterol and total lipids. Nature of the data set: Hypolipemiant activity: plasma lipid levels in rats on a saccharose and cholesterol-rich regime, 10 days treatment. The class given is in vivo, male rats of the Sprague Dawley S.P.F. strain. The settings on record: esophague tube, vs untreated controls. The method, then:
This test was effected on groups of 8 male rats of the Sprague Dawley S.P.F. strain weighing about 200 g and the animals received a regime containing 50% of saccharose and which was rich in cholesterol (1%). The rats were treated over 10 days with the test products which were administered through an esophague tube as a suspension in water containing carboxymethylcellulose. The animals were killed 16 hours after the last administration of the test product by an abdominal puncture and from the blood sample with sodium heparinate, the levels of triglycerides, cholesterol and total lipids were determined by the following methods.
The triglyceride level was determined by the semi-automatic technique of Kessler et al [Automation in Analytical Chemistry, 1965, p. 341] modified by Claude et al [Ann. Biol. Clin., Vol. 26 3-4 (1968), p. 451]. The cholesterol levels were determined by the technique of Levine [Symposium Technicon, Vol. I. (1967), p. 25] adapted to auto-analyzer system I. The nephelometric level of total lipids was determined semi-automatically by the method of Girard et al [Symposium Technicon, 1970]. The variations expressed in percentages of the level of triglycerides, cholesterol and total lipids after administration of the various dosage of the test products in the treated animals as compared to the untreated controls and the results are reported in Table I.

The next data set concerns mice. Nature of the data set: Acute toxicity in mice (intraperitoneal, DL50). The class given is in vivo. The settings on record: observed for one week, 10080 min. On the procedure:
as §1

Usually LD50 stands for the dose expected to kill half of the subjects tested. The low end stands for greater toxicity, the high end for lower toxicity. In turn, `CC1(c2ccccc2)OC(C(=O)O)Oc2ccc(Cl)cc21` (racemic) [Example 1, 6-chloro-4-methyl-4-phenyl-[4H]-1,3-benzodioxin-2-carboxylic acid] registered an LD50 at 168 h in data set [1] of 130 mg/kg. Further, in data set [2] (5 mg/kg/day), the “% Variation of levels, Cholesterol” value was -22%; the “% Variation of levels, Total Lipids” value is listed as -26%; the “% Variation of levels, Triglycerides” value is -11%.
The molecule `CC1(c2ccccc2)OC(C(=O)O)Oc2ccc(Cl)cc21` (racemic) [Example 3, 6-chloro-4-methyl-4-phenyl-[4H]-1,3-benzodioxin-2-carboxylic acid] gave a DL50 in the data set with mice of 150 mg/kg. In addition, in data set [2] (2 mg/kg/day), the “% Variation of levels, Cholesterol” value is reported as -36%; the “% Variation of levels, Total Lipids” value is on record as -38%; the “% Variation of levels, Triglycerides” value is on record as -12%.
In data set [1], `CCOC(=O)C1Oc2ccc(Cl)cc2C(C)(c2ccccc2)O1` (single isomer, unassigned) [16 Isomer A] registered an LD50 at 168 h of about 800 mg/kg. Besides, in data set [2] (2 mg/kg/day), the “% Variation of levels, Cholesterol” value is -17%; the “% Variation of levels, Total Lipids” value was -25%; the “% Variation of levels, Triglycerides” value is recorded as -32%.
In data set [1], `CC1(c2ccccc2)OC(C(=O)O)Oc2ccc(Cl)cc21` (single isomer, unassigned) [17 Isomer A] gave an LD50 at 168 h of about 200 mg/kg. In addition, in data set [2] (2 mg/kg/day), the “% Variation of levels, Cholesterol” value was -43%; the “% Variation of levels, Total Lipids” value is reported as -47%; the “% Variation of levels, Triglycerides” value is -57%.
In the same order, the values of `CC1(c2ccccc2)OC(C(=O)O)Oc2ccc(Cl)cc21` (single isomer, unassigned) [18 Isomer A 1 form] are about 250 mg/kg, -47%, -53% and -53%.
Consider `COC(=O)C1Oc2ccc(Cl)cc2C(C)(c2cccc(Cl)c2)O1` (single isomer, unassigned) [20 Isomer A], for which the LD50 at 168 h in data set [1] was at most 1000 mg/kg. In data set [2] (1 mg/kg/day), the “% Variation of levels, Cholesterol” value is given as -36%; the “% Variation of levels, Total Lipids” value is reported as -32%; the “% Variation of levels, Triglycerides” value is given as -13%.
In the same order, the values of `CC1(c2cccc(Cl)c2)OC(C(=O)O)Oc2ccc(Cl)cc21` (single isomer, unassigned) [21 Isomer A] are about 150 mg/kg, -11%, -25% and -62%.
In data set [1], `CN(C)CCOC(=O)C1Oc2ccc(Cl)cc2C(C)(c2ccccc2)O1` (single isomer, unassigned) [41 Isomer A] gave a median lethal dose (LD50) at 168 h of about 200 mg/kg. Further, in data set [2] (5 mg/kg/day), the “% Variation of levels, Cholesterol” value was -40%; the “% Variation of levels, Total Lipids” value is -49%; the “% Variation of levels, Triglycerides” value is -43%.
